These are literature values, as cited in patent publication US12616707B2, “Compositions and methods for improving gut health” (Plexus Worldwide, LLC., priority 2017, dated 2026).

The test system of series [1] is DSS-induced colitis model. Conditions: chlorogenic acid supplementation.
The mark [2] stands for this setting: 0.02% (wt/wt) in high-fat diet vs high-fat control group.

In the case of `O=C(/C=C/c1ccc(O)c(O)c1)O[C@@H]1C[C@](O)(C(=O)O)C[C@@H](O)[C@H]1O` [chlorogenic acid], in the series on high-fat fed mice (setting [2]), the Body weight entry is “significantly lowered”, the Plasma insulin levels entry is on record as “significantly lowered”, the Plasma leptin levels entry is “significantly lowered” and the Visceral fat mass entry was “significantly lowered”. Besides, in the series on high-fat fed mice (high-fat diet), the “Cholesterol concentrations (plasma, adipose tissue and heart)” value is given as “lowered”; the “Triglyceride concentrations (plasma, liver and heart)” value is on record as “lowered”. In addition, the IL-1β expression entry in series [1] is given as “significant suppression”.
